Source: patent publication US20220031712A1, “PREPARATION OF A PHARMACEUTICAL COMPOSITION OF OLODATEROL AND BUDESONIDE” (priority 2020, published 2022)
Structures can show the parent of a compound that is named as a salt.

Experiment: Thermal stability of Samples 1-4 at 60° C. (HPLC content and impurity detection)
Type: physicochemical
Procedure: The thermal stability of samples 1˜4 of example 1 at 60° C. is provided below:
Impurity detection method: • Mobile phase A: accurately weigh 3.17 g of sodium dihydrogen phosphate, add 1 L of pure water to dissolve, adjust the pH of the solution to 3.20 with phosphoric acid. Mobile Phase B: Acetonitrile. • Instrument ID: HPLC. • Column ID: YMC-Triart C18 250*4.6 5 μm. • Detection wavelength: 230 nm. • Flow rate: 1.0 mL/min. • Running time: 35 min.

stability of BD in the formulation (at pH 4.0 and 4.5, pH adjusted with citric acid) | stability of OH in the formulation (at pH 5.5 and pH 4.0, pH adjusted with citric acid) | SMILES
relatively stable | – | CCCC1O[C@@H]2C[C@H]3[C@@H]4CCC5=CC(=O)C=C[C@]5(C)[C@H]4[C@@H](O)C[C@]3(C)[C@]2(C(=O)CO)O1 (stereo partly drawn) [BD, 11β,21-dihydroxy-16α,17α-(butylidenebis(oxy))pregna-1,4-diene-3,20-dione]
– | relatively stable | COc1ccc(CC(C)(C)NC[C@H](O)c2cc(O)cc3c2OCC(=O)N3)cc1 [OH, Olodaterol hydrochloride]
